In this test the test system is KB. Nature of the test: Cytotoxicity was evaluated by using KB/P cancer cells. It is filed as functional, cell-based. Conditions: Homo sapiens.

The values that follow come from ChEMBL document CHEMBL1128912, “DNA cleavage of novel propargylic sulfones. Enhancement of potency via intercalating interaction” (Bioorg Med Chem Lett, 1996).

What is called IC50 is the concentration at which inhibition is half-maximal. Low readings indicate greater potency in that assay, high ones weaker potency in that assay. `O=S(=O)(CC#CCCCCC#CCO)c1ccccc1` showed an IC50 of 5.3 µM.
